We go through 2 compounds from publication PMC6797481, “Identification of an allosteric binding site on the human glycine transporter, GlyT2, for bioactive lipid analgesics” (eLife, 2019).

Positions count from the first letter of the chain named. pIC50: −log10 of the molar value. Some results are limits rather than exact numbers.

In one assay the target is T1, GlyT2 V432A mutant (Homo sapiens, UniProt Q9Y345, V432A).
T1 construct: expressed in transfected cells; host or cells: Xenopus laevis oocytes (cRNA injection)
T1 sequence (Q9Y345 1-797 V432A): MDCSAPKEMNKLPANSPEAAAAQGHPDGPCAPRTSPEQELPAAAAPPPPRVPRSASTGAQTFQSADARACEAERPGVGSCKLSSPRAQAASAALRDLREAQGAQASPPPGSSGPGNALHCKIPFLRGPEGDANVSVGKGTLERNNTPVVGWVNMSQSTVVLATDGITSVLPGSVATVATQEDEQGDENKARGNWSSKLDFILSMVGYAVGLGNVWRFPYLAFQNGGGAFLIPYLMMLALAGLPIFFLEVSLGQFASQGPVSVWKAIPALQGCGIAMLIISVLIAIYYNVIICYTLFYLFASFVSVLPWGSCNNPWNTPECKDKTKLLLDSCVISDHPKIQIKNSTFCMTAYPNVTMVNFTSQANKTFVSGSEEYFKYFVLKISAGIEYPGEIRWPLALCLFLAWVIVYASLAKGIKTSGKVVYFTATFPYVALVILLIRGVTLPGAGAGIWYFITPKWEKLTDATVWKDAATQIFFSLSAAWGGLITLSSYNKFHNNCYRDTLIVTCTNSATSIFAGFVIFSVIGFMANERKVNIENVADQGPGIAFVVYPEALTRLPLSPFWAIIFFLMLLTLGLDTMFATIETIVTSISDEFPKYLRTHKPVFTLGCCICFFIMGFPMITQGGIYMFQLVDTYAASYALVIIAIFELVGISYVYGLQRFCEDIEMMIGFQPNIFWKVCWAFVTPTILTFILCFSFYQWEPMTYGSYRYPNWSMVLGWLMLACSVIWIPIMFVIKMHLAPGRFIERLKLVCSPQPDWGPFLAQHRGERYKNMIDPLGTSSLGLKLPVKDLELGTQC
Put plainly: Glycine transport currents, two electrode voltage clamp, oocytes expressing GlyT2 V432A. The following applies: GlyT2 V432A; for pIC50: greater than maximum concentration applied (footnote a). Format: cell-based. Here is the method: (§1) Glycine was first applied to establish maximal transport current.
(§2) Compounds were tested for inhibition of glycine transport on Xenopus laevis oocytes expressing mutant GlyT1 and GlyT2 transporters. n values are in brackets, with measurements taken from at least 2 batches of oocytes.

In a further assay the test system is GlyT1 WT. Also noted: method as in earlier work. Particulars: previously published; cited from earlier work.
In a further assay the target is T2, GlyT2 WT (Homo sapiens, UniProt Q9Y345).
T2 sequence (Q9Y345 1-797): T1 sequence (Q9Y345 1-797 V432A) with A432V
Also noted: expressed in transfected cells; host or cells: Xenopus laevis oocytes (cRNA injection). The following applies: WT GlyT2, previously published, cited from earlier work; for pIC50: mean (95% CI); for GlyT2 % max. inhibition: mean ± SEM.

For a further assay, the target named is T3, GlyT2 F428A mutant (Homo sapiens, UniProt Q9Y345, F428A).
T3 construct: expressed in transfected cells; host or cells: Xenopus laevis oocytes (cRNA injection)
T3 sequence (Q9Y345 1-797 F428A): T1 sequence (Q9Y345 1-797 V432A) with F428A, A432V
Put plainly: Glycine transport currents, two electrode voltage clamp, oocytes expressing GlyT2 F428A. It is filed as cell-based. Particulars: GlyT2 F428A; mean ± SEM. Here is the method: as §1, §2
For orientation: In two-electrode clamp one electrode senses voltage and the other passes current.

In the case of `CCC=CCCCCCCCCCCCC(=O)NCC(=O)O` [C16 ω3 Glycine], the pIC50 – broadly, the IC50 on a negative log10 scale, so that one unit is a factor of ten – was < 5.00 against GlyT2 V432A mutant, < 5.00 with GlyT1 WT and 6.09 at GlyT2 WT. Also, the “% Max. inhibition” value on GlyT2 V432A mutant (mean ± SEM) was 1.0 ± 3.0 (p=0.0193) %. At GlyT2 WT, the “GlyT2 % max. inhibition” value is 65.3 ± 1.9%.
In the case of `CCCCCC/C=C\CCCCCCCC(=O)NCC(=O)O` [C16 ω7 Glycine], the “% Max. inhibition (% inhibition at the highest concentration of inhibitor used)” value on GlyT2 V432A mutant (footnote b) is given as 44.2 ± 6.3^b (p=0.0009) %. Besides, the pIC50 against GlyT2 V432A mutant is < 5.00; in the assay on GlyT1 WT it was < 5.00; on GlyT2 WT it was 5.82. In addition, the “% Max. inhibition” value at GlyT2 F428A mutant came to 56.5%. For the same compound, the “GlyT2 % max. inhibition” value on GlyT2 WT was 92.5 ± 1.6%.
